Assays:
[1] = test system: A549 cells infected with R. oryzae; assay: R. oryzae-induced damage of A549 cells (LDH assay); type: cell-based, human; conditions: 25 μM Mifepristone overnight and/or 25 μM Gefitinib 1 h, 24 h infection (FIG. 14)
Protocol: R. delemar-induced A549 cell damage was quantified using the Pierce LDH assay, with slight modifications to the manufacturer's protocol. Briefly, A549 cells were grown in 96-well tissue culture plates for 18 to 24 h. […] For controls, host cells were incubated with the appropriate amount of diluent used to reconstitute the in parallel. After 24 h of incubation at 37° C., 50 μl of the cell culture supernatant was collected from uninfected, infected, and fungus-only control wells and transferred to a 96-well plate to assay for LDH activity. Lysis buffer was added to all infected wells, and the mixture was incubated for 45 min at 37° C. After lysis, 50 μl of cell culture supernatant was transferred to a 96-well plate and used for the LDH assay kit per the protocol. LDH release was calculated as follows: % cytotoxicity=[(experimental release−fungal cell spontaneous control−host cell spontaneous control)/(host cell maximum control−fungal cell maximum control−host cell spontaneous control)]×100. LDH is a cytosolic enzyme but will be released into the cell culture medium upon cell membrane damage. The amount of extracellular LDH is proportional to the amount of cell damage.

R. delemar [2] = assay: Tissue fungal burden of lungs and brains by qPCR in neutropenic mice; type: in vivo; conditions: 10 mg/kg starting 4 h post infection through Day +3, organs collected Day +4, qPCR
Protocol: Murine models of Mucormycosis. Male ICR mice (20-25 g from Envigo) were immunosuppresed by cyclophosphamide (200 mg/kg administered intraperotenually [i.p]) and cortisone acetate (500 mg/kg, adminstered subcutaneously) given on days −2, +3, and +9 relative to infection. […] To control for bacterial infection, immunosuppressed mice received 50 mg/L Baytrial (enrofloxacin: Bayer, Leverkusen, Germany) ad libitum on Day −3 thorough Day 0, after which Baytril was replaced with daily ceftazidime (5 mg/mouse) treatment adminstered subcutaneously through day+13 days post infection. […] On Day +4, mice were sacrificed and lungs and brains, representing primary and secondary target organs (Luo G, Gebremariam T, Lee H, French S W, Wiederhold N P, Patterson T F, Filler S G, Ibrahim A S. 2013. Efficacy of liposomal amphotericin B and posaconazole in intratracheal models of murine mucormycosis. Antimicrobial agents and chemotherapy 57:3340-7), were collected and processed for tissue fungal burden by qPCR (Ibrahim A S, Bowman J C, Avanessian V, Brown K, Spellberg B, Edwards J E, Jr., Douglas C M. 2005. Caspofungin inhibits Rhizopus oryzae 1,3-beta-D-glucan synthase, lowers burden in brain measured by quantitative PCR, and improves survival at a low but not a high dose during murine disseminated zygomycosis. […]
Statistical Analyses. […] Data were expressed as median±interquartile range. […]

[3] = test system: A549 cells infected with C. bertholletiae; assay: C. bertholletiae-induced damage of A549 cells (LDH assay); type: cell-based, human; conditions: 25 μM Mifepristone overnight and/or 25 μM Gefitinib 1 h, 24 h infection (FIG. 14)
[4] = test system: A549 cells infected with L. corymbifera; assay: L. corymbifera-induced damage of A549 cells (LDH assay); type: cell-based, human; conditions: 25 μM Mifepristone overnight and/or 25 μM Gefitinib 1 h, 24 h infection (FIG. 14)
[5] = test system: A549 alveolar epithelial cells infected with R. delemar spores; assay: Measurement of host cell endocytosis of R. delemar by A549 cells (Uvitex differential fluorescence); type: cell-based, human; conditions: for endocytosis of R. delemar spores: A549 cells pretreated 1 h with 25 μM Gefitinib or 25 μg/ml Cetuximab, 3 h infection, vs vehicle or IgG1 control antibody
Protocol: Measurement of host cell endocytosis. 12-mm glass coverslips were seeded with A549 alveolar epithelial cells. […] For controls, host cells will be incubated with DMSO (the solvent used to reconstitute the inhibitor) or 25 μg/ml mouse IgG antibody in parallel. Host cells were then infected with 2×10^5 R. delemar spores. After incubation for 3 h, cells were fixed in 3% paraformaldehyde and stained for 1 h with 1% Uvitex, which specifically binds to chitin in the fungal cell wall. After washing with PBS, coverslips were mounted on a glass slide with a drop of ProLong Gold anti-fade reagent (Molecular Probes) and sealed. The total number of cell-associated organisms (i.e. fungi adhering to the monolayer) per high-powered field were determined by phase-contrast microscopy. The same field will be examined by epifluorescence microscopy, and the number of brightly fluorescent, uninternalized fungi were determined. The number of endocytosed organisms was calculated by subtracting the number of fluorescent fungi from the total number of visible fungi. At least 400 organisms were counted per treatment group in at least 15 different fields per coverslip. Experiments were performed in duplicate or triplicate on at least two separate days.
12-mm glass coverslips in 12 well dishes will be seeded with A549 alveolar epithelial cells. Cells were then pre-treated 1 h with inhibitors. For controls, host cells were incubated with the appropriate amount of diluent used to reconstitute the inhibitor in parallel. Host cells were then infected with 2×10^6 Rdelemar. After incubation for 3 h, cells were fixed in 3% paraformaldehyde and stained for 1 h with 1% Uvitex, which specifically binds to chitin in the fungal cell wall. After washing with PBS, coverslips were mounted on a glass slide with a drop of ProLong Gold anti-fade reagent (Molecular Probes) and sealed. The total number of cell-associated organisms (i.e., fungi adhering to the monolayer) per high-powered field was determined by phase-contrast microscopy. The same exact field was examined by epifluorescence microscopy, and the number of brightly fluorescent, uninternalized fungi will be determined. The number of endocytosed organisms is calculated by subtracting the number of fluorescent organisms from the total number of visible organisms. At least 400 organisms were counted in at least 15 different fields per coverslip. Experiments were performed in duplicate on separate days. Data will be expressed as median f interquartile range.

R. delemar [6] = assay: Growth / germination of R. delemar in the absence of host cells; type: cell-based

SMILES: COc1cc2ncnc(Nc3ccc(F)c(Cl)c3)c2cc1OCCCN1CCOCC1 [Gefitinib]
- R. oryzae-induced damage [1]: significantly decreased
- reduction in fungal burden in organs (lungs and brains) compared to placebo-treated mice (R. delemar [2]): ~1 log
- C. bertholletiae-induced damage [3]: significantly decreased
- L. corymbifera-induced damage [4]: significantly decreased
- endocytosis of R. delemar spores [5]: significantly reduced
- endocytosis of R. delemar spores ([5]; listed as Gefinitib): did not completely block
- endocytosis after pre-treatment of R. delemar spore preparations ([5]; spore preparations pre-treated with drug prior to the infection): did not reduce
- R. delemar mycelial growth (R. delemar [6]): no effect

— patent publication US20210284742A1, “METHODS OF TREATING OR PREVENTING MUCORMYCOSIS” (University of Maryland, Baltimore, priority 2018, published 2021)
